Entries after “also recorded” stand apart in the source; their conditions may differ.
Legend:
5-HT2A receptor [1] = target: T1, 5-HT2A receptor (Mus musculus, UniProt P35363); test: Drug-induced Head Twitch Response (HTR) in mice; assay type: in vivo; settings: i.p. 1 mg/kg; for Head Twitch Response (HTR): 15-to-30-minute window following administration, relative to vehicle
T1 construct: tissue Charles River; host or cells: living C57BL/6-Elite mice (brain, in vivo)

5-HT1A receptor = target: T2, 5-HT1A receptor (Homo sapiens, UniProt P08908); test: cAMP-Glo assay of 5-HT1A receptor modulation, CHO-K1/5-HT1A/Ga15 vs CHO-K1/Ga15 cells; assay type: cell-based; settings: for 5-HT1A receptor modulation (cAMP, +5-HT1A vs −5-HT1A cultures): forskolin-stimulated cells, 20 minutes treatment; for cAMP levels with increasing ligand: +5-HT1A cells stimulated with forskolin, control ligands
T2 construct: host or cells: CHO-K1 (co-expressing Ga15)
T2 sequence (P08908 1-422): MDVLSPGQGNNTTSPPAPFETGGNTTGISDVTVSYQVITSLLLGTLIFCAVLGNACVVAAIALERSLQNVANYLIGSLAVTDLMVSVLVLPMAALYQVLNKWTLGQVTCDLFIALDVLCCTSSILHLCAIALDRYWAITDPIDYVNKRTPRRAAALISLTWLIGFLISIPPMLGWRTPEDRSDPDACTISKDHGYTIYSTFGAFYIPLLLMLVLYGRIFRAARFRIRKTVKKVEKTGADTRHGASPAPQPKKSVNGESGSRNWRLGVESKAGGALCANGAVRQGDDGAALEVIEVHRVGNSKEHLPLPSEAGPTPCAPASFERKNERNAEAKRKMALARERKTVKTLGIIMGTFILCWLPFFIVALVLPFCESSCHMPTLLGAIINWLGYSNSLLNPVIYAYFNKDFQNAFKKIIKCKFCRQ

[2] = Solubility of the salt in water
5-HT2A receptor [3] = target: 5-HT2A receptor (Homo sapiens, UniProt P28223); test: [3H]ketanserin radioligand competition binding assay (SPA); settings: [3H]ketanserin competition
Sequence of 5-HT2A receptor (Homo sapiens, UniProt P28223) (P28223 whole entry): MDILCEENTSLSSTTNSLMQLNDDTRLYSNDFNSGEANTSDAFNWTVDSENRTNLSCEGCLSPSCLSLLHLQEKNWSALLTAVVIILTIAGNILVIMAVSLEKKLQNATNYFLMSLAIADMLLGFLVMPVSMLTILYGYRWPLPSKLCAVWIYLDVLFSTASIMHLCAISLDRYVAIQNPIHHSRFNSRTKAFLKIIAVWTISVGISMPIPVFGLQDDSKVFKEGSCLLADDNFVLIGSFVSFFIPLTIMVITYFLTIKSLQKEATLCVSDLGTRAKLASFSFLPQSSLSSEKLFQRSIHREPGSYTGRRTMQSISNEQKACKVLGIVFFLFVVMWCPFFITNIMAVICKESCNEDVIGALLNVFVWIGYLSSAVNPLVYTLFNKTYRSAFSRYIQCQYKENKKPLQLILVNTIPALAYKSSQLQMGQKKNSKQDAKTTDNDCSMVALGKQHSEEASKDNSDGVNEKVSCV

[4] = In vitro metabolic stability assay, human AB serum; assay type: in vitro ADME; settings: 10% human AB serum
Excerpt: (§1) A fundamental evaluation in drug development is the assessment of absorption, distribution, metabolism, excretion, and pharmacokinetics (ADME/PK) (Eddershaw et al., 2000, Drug Discovery Today 5(9): 409-414). […] Drug stability upon exposure to human liver microsomes and liver S9 cellular fractions is a common in vitro assay to approximate in vivo, liver-based drug metabolism (Richardson et al., 2016 Drug Metabolism Letters 10:83-90). First-pass metabolism is also often approximated in vitro using intestinal microsome and cellular S9 fractions (Hatley et al., 2017, Biopharmaceuticals & Drug Disposition, 38(2):155-160). Further, it is well known that human serum, and particularly circulating serum esterases can contribute to systemic drug metabolism (Williams, F M 1987, Pharmacology and Therapeutics, 34:99-109). Many pharmacological agents are classified as prodrugs, as they undergo metabolic transformation in vivo upon administration to release the active drug compound into the systemic compartment (Zawilska J B, et al. 2013, Pharmacological Reports, 65:1-14). Psilocybin, a serotonergic psychedelic agent, is well known prodrug that is metabolized into the psychoactive product, psilocin (Dinis-Oliveira, R J 2017, Drug Metabolism Reviews, 49(1):84-91). […] Supernatants were analyzed for the presence of candidate prodrugs (parent molecule) and psilocin (the predicted metabolite) using Orbitrap LC-MS (Thermo Scientific) using previously described methods (Menéndez-Perdomo et al., 2021, J Mass Spectrom, 56: e4683). […] Assay concentrations (μM) of both parent ‘prodrug’ molecule and psilocin metabolite, as quantified through LC-MS using routine standard curve procedures, were plotted as functions of assay time (minutes). The metabolism rate (T1/2) was determined from the metabolism curve plot using the one phase decay feature of GraphPad PRISM software (Version 9.2.0). The quantity of parent prodrug at time zero was set as 100%. […]

HepG2 cells = test: PrestoBlue cell viability assay in HepG2 cells; assay type: cell-based, human; settings: 48 hours incubation
Excerpt: Methanol or DMSO were used as vehicles, at concentrations 0, 0.001, 0.01, 0.1, and 1% (methanol) or 0, 0.001, 0.01, 0.1, and 1% (DMSO), respectively. […] Non-treated cells were assigned 100% viability. Bar graphs show the mean+/−SD, n=3.
Non-treated cells were assigned 100% viability. Bar graphs show the mean+/−SD, n=3.

[5] = In vitro metabolic stability and psilocin-release assays, statements covering several fractions; assay type: in vitro ADME, human
Excerpt: as §1

[6] = Mouse pharmacokinetic (PK) evaluation of drug metabolism to psilocin; assay type: in vivo, C57Bl/6 mice; settings: mice
[7] = Stability assay in enzyme-free control buffer; assay type: in vitro ADME; settings: negative control buffer, pH 7.4
Excerpt: as §1, with “38(2):155-160).” for “38(2):155-160). Further, it is well known that human serum, and particularly circulating serum esterases can contribute to systemic drug metabolism (Williams, F M 1987, Pharmacology and Therapeutics, 34:99-109). Many pharmacological agents are classified as prodrugs, as they undergo metabolic transformation in vivo upon administration to release the active drug compound into the systemic compartment (Zawilska J B, et al. 2013, Pharmacological Reports, 65:1-14). Psilocybin, a serotonergic psychedelic agent, is well known prodrug that is metabolized into the psychoactive product, psilocin (Dinis-Oliveira, R J 2017, Drug Metabolism Reviews, 49(1):84-91).”

[8] = In vitro metabolic stability assay, human liver S9 fractions; assay type: in vitro ADME; settings: HLS9 fraction, 37° C., NADPH
Excerpt: as §1, with “38(2):155-160).” for “38(2):155-160). Further, it is well known that human serum, and particularly circulating serum esterases can contribute to systemic drug metabolism (Williams, F M 1987, Pharmacology and Therapeutics, 34:99-109). Many pharmacological agents are classified as prodrugs, as they undergo metabolic transformation in vivo upon administration to release the active drug compound into the systemic compartment (Zawilska J B, et al. 2013, Pharmacological Reports, 65:1-14). Psilocybin, a serotonergic psychedelic agent, is well known prodrug that is metabolized into the psychoactive product, psilocin (Dinis-Oliveira, R J 2017, Drug Metabolism Reviews, 49(1):84-91).”

[9] = In vitro metabolic stability assay, human liver microsomes; assay type: in vitro ADME; settings: HLM fraction, 37° C., NADPH
Excerpt: as §1, with “38(2):155-160).” for “38(2):155-160). Further, it is well known that human serum, and particularly circulating serum esterases can contribute to systemic drug metabolism (Williams, F M 1987, Pharmacology and Therapeutics, 34:99-109). Many pharmacological agents are classified as prodrugs, as they undergo metabolic transformation in vivo upon administration to release the active drug compound into the systemic compartment (Zawilska J B, et al. 2013, Pharmacological Reports, 65:1-14). Psilocybin, a serotonergic psychedelic agent, is well known prodrug that is metabolized into the psychoactive product, psilocin (Dinis-Oliveira, R J 2017, Drug Metabolism Reviews, 49(1):84-91).”

T1 sequence (P35363 whole entry): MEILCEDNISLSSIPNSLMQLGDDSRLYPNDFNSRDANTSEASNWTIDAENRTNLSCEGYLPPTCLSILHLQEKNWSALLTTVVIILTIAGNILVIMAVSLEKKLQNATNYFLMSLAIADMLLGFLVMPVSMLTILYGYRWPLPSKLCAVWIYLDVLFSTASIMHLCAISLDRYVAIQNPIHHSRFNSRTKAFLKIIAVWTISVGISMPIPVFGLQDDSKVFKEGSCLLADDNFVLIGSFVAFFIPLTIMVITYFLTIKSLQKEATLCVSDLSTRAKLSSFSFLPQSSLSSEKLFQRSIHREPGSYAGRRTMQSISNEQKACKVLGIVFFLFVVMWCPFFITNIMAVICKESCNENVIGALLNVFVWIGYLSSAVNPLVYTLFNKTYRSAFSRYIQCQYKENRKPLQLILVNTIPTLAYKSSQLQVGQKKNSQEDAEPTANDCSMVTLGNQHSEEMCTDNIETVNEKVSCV

## CN(C)CCc1c[nH]c2cccc(OC(=O)c3c(F)c(F)c(F)c(F)c3F)c12 [C(VI)]
5-HT2A receptor [1]
  Head Twitch Response (HTR): Elevated incidences of HTR
5-HT1A receptor
  5-HT1A receptor modulation (cAMP, +5-HT1A vs −5-HT1A cultures): no receptor modulation at higher ligand concentrations

## COc1ccc(C(=O)Oc2cccc3[nH]cc(CCN(C)C)c23)cc1.O=C(O)C(O)C(O)C(=O)O [C(Va2)]
[2]
  solubility in water: ≥ 10 mg per mL

## COc1ccc(C(=O)Oc2cccc3[nH]cc(CCN(C)C)c23)cc1 [C(V)]
5-HT2A receptor [1]
  Head Twitch Response (HTR): Elevated incidences of HTR
5-HT1A receptor
  5-HT1A receptor modulation (cAMP, +5-HT1A vs −5-HT1A cultures): mild receptor modulation at higher ligand concentrations

## CN(C)CCc1c[nH]c2cccc(O)c12 [psilocin, reference compound]
5-HT1A receptor
  cAMP levels with increasing ligand: reduction in cAMP levels
5-HT2A receptor [3]
  competition binding at 5-HT2A (controls, in words): binding

## CN(C)CCc1c[nH]c2cccc(OC(=O)OCc3ccccc3)c12 [B(II)]
5-HT2A receptor [1]
  Head Twitch Response (HTR): elicit head twitching
[4]
  stability / dissociation to psilocin in serum: failed completely to dissociate
HepG2 cells
  CD50 (cytotoxicity, cell viability): 65.9 µM
[5]; HLM, HLS9, HIM, HIS9, AB serum, buffer control
  dissociation to psilocin: did not readily dissociate to psilocin under any conditions
[6]; oral 10 mg/kg
  time the derivative resides in plasma post-dosing: up to 4 hours

## NCCc1c[nH]c2ccc(O)cc12 [serotonin, reference compound]
5-HT1A receptor
  cAMP levels with increasing ligand: reduction in cAMP levels

## CN(C)CCc1c[nH]c2cccc(OP(=O)(O)O)c12 [psilocybin]
[4]
  stability / dissociation to psilocin in serum: stable in serum with no conversion to psilocin
[7]
  stability in assay buffer: stability of psilocybin was confirmed in assay buffer
[5]; liver fractions (HLM, HLS9)
  stability / conversion to psilocin in liver fractions: stable in liver fractions with no conversion to psilocin

## COc1ccc(C(=O)Oc2cccc3[nH]cc(CCN(C)C)c23)cc1 [C(Va1)]
[2]
  solubility in water: ≥ 10 mg per mL

## CN(C)CCc1c[nH]c2cccc(OC(=O)c3cccc4c3OCCO4)c12 [C(XX)]
5-HT2A receptor [1]
  Head Twitch Response (HTR): Elevated incidences of HTR
5-HT1A receptor
  5-HT1A receptor modulation (cAMP, +5-HT1A vs −5-HT1A cultures): significant receptor modulation

## CN(C)CCc1c[nH]c2cccc(OC(=O)SCc3ccccc3)c12.Cl [E(VIa1)]
[2]
  solubility in water: ≥ 10 mg per mL

## CN(C)CCc1c[nH]c2cccc(OC(=O)SCc3ccccc3)c12 [E(VI)]
[8]
  half-life (T1/2): 5 min
5-HT2A receptor [1]
  Head Twitch Response, E(VI) compared to B(II): elevated response
5-HT2A receptor [1]; 1 mg/kg
  Head Twitch Response (HTR): Elevated incidences of HTR; also recorded: elicit head twitching
5-HT1A receptor
  5-HT1A receptor modulation (cAMP, +5-HT1A vs −5-HT1A cultures): mild receptor modulation at higher ligand concentrations
[9]
  half-life (T1/2): 6 min
[4]
  stability / dissociation to psilocin in serum: nearly completely disappears
[5]; liver fractions and serum
  conversion to psilocin: quickly converted to psilocin in liver fractions and serum
[6]; oral 1 mg/kg
  detection of the derivative in plasma: neither B(II) nor E(VI) were detected in plasma
[6]; oral 3 mg/kg and 10 mg/kg
  detection of the derivative in plasma: never detected at any timepoint

## N[C@@H](Cc1c[nH]c2ccccc12)C(=O)O [tryptophan, reference compound]
5-HT1A receptor
  cAMP levels with increasing ligand: no reduction in cellular cAMP levels
5-HT2A receptor [3]
  competition binding at 5-HT2A (controls, in words): no binding

## COc1ccc(C(=O)Oc2cccc3[nH]cc(CCN(C)C)c23)cc1 [C(Vb1)]
[2]
  solubility in water: < 1 mg in a mL

## CN(C)CCc1c[nH]c2cccc(OC(=O)c3cccc(C(=O)Oc4cccc5[nH]cc(CCN(C)C)c45)c3)c12 [C(VII)]
5-HT2A receptor [1]
  Head Twitch Response (HTR): Elevated incidences of HTR
5-HT1A receptor
  5-HT1A receptor modulation (cAMP, +5-HT1A vs −5-HT1A cultures): no significant receptor modulation

## CN(C)CCc1c[nH]c2cccc(OC(=O)CC3CC3)c12 [C(IV)]
5-HT2A receptor [1]
  Head Twitch Response (HTR): Elevated incidences of HTR
5-HT1A receptor
  5-HT1A receptor modulation (cAMP, +5-HT1A vs −5-HT1A cultures): significant receptor modulation

## COC(=O)c1cccc(C(=O)Oc2cccc3[nH]cc(CCN(C)C)c23)c1 [C(XLIII)]
5-HT1A receptor
  5-HT1A receptor modulation (cAMP, +5-HT1A vs −5-HT1A cultures): receptor modulation at higher ligand concentrations

## COCCOCCOCC(=O)Oc1cccc2[nH]cc(CCN(C)C)c12 [C(III)]
5-HT2A receptor [1]
  Head Twitch Response (HTR): Elevated incidences of HTR
5-HT1A receptor
  5-HT1A receptor modulation (cAMP, +5-HT1A vs −5-HT1A cultures): significant receptor modulation

## CN(C)CCc1c[nH]c2cccc(OC(=O)SCc3ccccc3)c12 [E(VIb1)]
[2]
  solubility: > 10000 µg/mL

## CN(C)CCc1c[nH]c2cccc(OC(=O)c3ccc(Br)cc3)c12 [C(I)]
5-HT2A receptor [1]
  Head Twitch Response (HTR): Elevated incidences of HTR
5-HT1A receptor
  5-HT1A receptor modulation (cAMP, +5-HT1A vs −5-HT1A cultures): mild receptor modulation at higher ligand concentrations

Reference: US20250205197A1
